Results on three molecules are retold here after patent US20140073637A1, “AMINO-SUBSTITUTED-ALKYLOXY-BENZO[E]PYRIDO[4,3-B]INDOLE DERIVATIVES AS NEW POTENT KINASE INHIBITORS” (INSTITUT CURIE, priority 2011, published 2014).

Like-named read-outs stand apart in the source and are kept apart here.

For assay [1], the target named is Aurora B (Homo sapiens, UniProt Q96GD4). Description: Kinase profiling in vitro at 1 μM. It counts as biochemical. How it is done: (§1) The specificity of C14 was tested, in vitro, against 121 kinases representative of the kinome. Assays run in duplicate, at the concentration of 1 μM, were performed by MRC (Dundee, UK). Results are represented in FIG. 1. The main targets are highlighted in FIG. 1B.
(§2) In addition, the percentage of remaining activity of recombinant kinases Aurora kinases A and B and Checkpoint kinases 1 and 2 at the concentration of 1 μM of C1, C2 and C14 have been determined.
(§3) The profiling was performed at the MRC (Dundee University), in duplicate, on a set of 121 kinases. The panel is representative of the major different classes of kinases. Compounds were used at the concentration of 1 μM. In vitro, IC50 were determined on recombinant kinases by Reaction biology Corp (USA).

Assay [2] concerns the target T1, CHK1 (Homo sapiens, UniProt O14757).
T1 sequence (O14757 1-476): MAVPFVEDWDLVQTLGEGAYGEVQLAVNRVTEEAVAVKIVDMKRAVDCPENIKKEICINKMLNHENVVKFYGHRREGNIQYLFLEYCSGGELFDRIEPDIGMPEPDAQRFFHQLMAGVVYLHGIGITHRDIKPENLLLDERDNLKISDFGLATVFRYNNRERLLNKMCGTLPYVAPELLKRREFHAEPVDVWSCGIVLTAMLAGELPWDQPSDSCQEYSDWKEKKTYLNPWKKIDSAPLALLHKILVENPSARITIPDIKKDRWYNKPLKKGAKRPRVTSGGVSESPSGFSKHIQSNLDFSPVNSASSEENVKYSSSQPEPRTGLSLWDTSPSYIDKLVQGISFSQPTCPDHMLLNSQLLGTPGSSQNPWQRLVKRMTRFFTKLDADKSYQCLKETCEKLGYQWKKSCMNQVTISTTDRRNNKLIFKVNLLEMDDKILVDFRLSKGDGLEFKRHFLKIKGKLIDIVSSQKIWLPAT
Description: Kinase profiling in vitro at 1 μM. The assay is classed as biochemical. How it is done:
as §1, §2, §3

Assay [3] has as its target Chk2 (Homo sapiens, UniProt O96017). In words: Kinase profiling in vitro at 1 μM. It counts as biochemical. How it is done:
as §1, §2, §3

Assay [4] has as its system HeLa cells stably expressing aurora B-GFP. In words: Time-lapse of HeLa cells expressing aurora B-GFP. It counts as cell-based. Conditions: 0.5 μM; continuous imaging. How it is done: FIG. 7A: Cells treated by either DMSO (CO: control) or C1 (0.5 μM) or C14 (0.5 μM) were continuously imaged with a ZEISS confocal microscope. […] Mitotic cells were found fluorescent and GFP was concentrated on the centromeres. In control conditions, centromere aligned at metaphase and upon anaphase ongoing fluorescence concentrates on the spindle and finally in the midbody (A, CO). The shape of the cells is visualized by white dotted lines.
HeLa cells expressing aurora B-GFP were treated by either C14 (0.5 μM) or C1 (0.5 μM) or DMSO (control; Co). Mitotic cells were continuously imaged under controlled conditions (37° C. and 5% CO2). The localisation of aurora B-GFP is represented and the elapsed time indicated in the three conditions (FIG. 7A). Control cells divided normally; Aurora B presented on the centromeres (FIG. 7A, CO, To and 10 min) was then transferred on microtubules (FIG. 7A, CO 45 min) and finally concentrated in the mid body (FIG. 7A, CO, 1 h). […] These cells escaped from mitosis without anaphase and gave rise to micronuclei (FIG. 7B, C1). In the presence of C14 (0.5 μM), chromosome aligned normally (FIG. 7B, C14 To) and aurora B-GFP was found accumulated in the mid-zone (FIG. 7B, C14, 18 min, 40 min and 2 h). Finally, these cells spread again without division (FIG. 7B, C14 4 h). […]

The target of assay [5] is T2, NUAK1 (Homo sapiens, UniProt O60285).
T2 construct: Reaction biology Corp (USA), service
T2 sequence (O60285 1-661): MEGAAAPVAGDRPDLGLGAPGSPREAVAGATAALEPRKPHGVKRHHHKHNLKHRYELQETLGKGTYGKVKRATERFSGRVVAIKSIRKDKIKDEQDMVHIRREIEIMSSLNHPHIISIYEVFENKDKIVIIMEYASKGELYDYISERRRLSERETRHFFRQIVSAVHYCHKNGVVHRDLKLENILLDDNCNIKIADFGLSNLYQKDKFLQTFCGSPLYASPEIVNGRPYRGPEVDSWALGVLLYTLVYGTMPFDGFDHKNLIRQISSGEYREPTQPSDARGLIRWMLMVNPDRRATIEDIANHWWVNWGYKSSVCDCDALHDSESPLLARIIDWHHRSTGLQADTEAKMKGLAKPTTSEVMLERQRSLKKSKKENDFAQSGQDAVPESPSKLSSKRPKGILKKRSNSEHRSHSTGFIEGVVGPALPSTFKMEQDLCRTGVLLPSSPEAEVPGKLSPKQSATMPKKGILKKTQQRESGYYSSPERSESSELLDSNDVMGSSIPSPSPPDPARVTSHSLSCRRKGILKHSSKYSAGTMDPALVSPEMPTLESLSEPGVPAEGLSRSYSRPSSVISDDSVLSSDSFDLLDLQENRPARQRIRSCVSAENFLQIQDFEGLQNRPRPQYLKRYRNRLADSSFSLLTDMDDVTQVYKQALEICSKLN
In words: Nuak1 inhibition in cellulo: LATS1 stabilization by western blot. The assay is classed as cell-based. Particulars: HeLa cells treated ON; whole cell extracts, WB, compared to control. How it is done:
HeLa cells were treated ON by C21 (also named CH21) and C14M and compared to the control (C0). Whole cell extracts were analyzed by WB with anti LATS1 monoclonal antibody and the loading was quantified through the tubulin signal.
Therefore the possibility of inhibiting Nuakl, in cellulo, was evaluated through the stabilization of the Large Antigen Tumour Suppressor LATS1.
Cells were treated by compounds, harvested and lyzed in 9M urea then supplemented with Laemmli sample buffer. Cell extracts were subjected to SDS-PAGE and transferred to nitrocellulose filter (GE Healthcare). After blocking with 5% non-fat milk in PBS for at least 1 hour, the membranes were incubated with the primary antibodies. The following antibodies were used: phospho-Histone H3 Ser10 (1:2000, Upstate Biotechnology), anti LAST1 (Cell signalling), anti Aurora B (epitomics) and anti alpha-tubulin (Sigma) Anti-rabbit horseradish peroxidase (1:5000, GE Healthcare) was used as secondary antibodies. Bands were visualized by ECL technique (Amersham Bioscience).

Setting [6] is: 1 microMolar in vitro, read-out: Percent of remaining activity.
The mark [7] stands for this setting: compound at 1 μM, read-out: percentage of remaining activity of recombinant kinase.
Setting [8] is: Chk1, compound at 1 μM, read-out: percentage of remaining activity of recombinant kinase.

Aurora B, sequence (Q96GD4 whole entry): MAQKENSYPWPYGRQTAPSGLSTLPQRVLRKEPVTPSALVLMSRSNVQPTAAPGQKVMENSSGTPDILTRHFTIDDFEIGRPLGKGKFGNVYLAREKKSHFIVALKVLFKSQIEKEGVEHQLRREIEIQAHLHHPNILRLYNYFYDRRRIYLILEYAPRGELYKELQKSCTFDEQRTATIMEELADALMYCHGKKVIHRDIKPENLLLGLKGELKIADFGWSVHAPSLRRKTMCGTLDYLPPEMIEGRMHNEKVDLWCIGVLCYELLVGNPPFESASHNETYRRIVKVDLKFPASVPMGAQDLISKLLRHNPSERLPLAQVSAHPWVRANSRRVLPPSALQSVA
Chk2, sequence (O96017 whole entry, species assumed): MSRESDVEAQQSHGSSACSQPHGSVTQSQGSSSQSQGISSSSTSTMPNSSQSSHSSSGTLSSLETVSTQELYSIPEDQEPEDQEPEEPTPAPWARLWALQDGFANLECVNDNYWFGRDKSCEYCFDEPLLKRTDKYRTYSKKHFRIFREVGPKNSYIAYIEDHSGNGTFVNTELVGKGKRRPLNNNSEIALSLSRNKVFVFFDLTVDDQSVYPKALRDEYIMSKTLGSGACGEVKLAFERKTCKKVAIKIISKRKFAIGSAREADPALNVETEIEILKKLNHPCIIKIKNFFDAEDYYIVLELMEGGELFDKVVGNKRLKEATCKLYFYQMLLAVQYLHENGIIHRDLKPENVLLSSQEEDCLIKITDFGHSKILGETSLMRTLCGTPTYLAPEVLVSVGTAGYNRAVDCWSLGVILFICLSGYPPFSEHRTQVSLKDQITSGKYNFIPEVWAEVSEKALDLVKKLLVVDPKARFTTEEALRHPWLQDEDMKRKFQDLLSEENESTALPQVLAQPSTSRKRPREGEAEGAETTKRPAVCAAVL

By remaining activity is commonly meant what remains of the control signal, in per cent. Consider `Cc1c[nH]c(=O)c2c1[nH]c1ccc3cc(OCCN(C)C)ccc3c12` [Compound C14, 3-(2-N,N-Dimethylaminoethoxy)-8-methyl-7H,10H-benzo[e]pyrido(4,3-b)indol-11-one], for which the remaining activity at 1 µM in assay [1] (setting [6]) is 24%; in assay [1] (setting [7]), 24%; in assay [2] (CHK1, 1 microMolar in vitro, read-out: Percent of remaining activity), 31%; in assay [2] (setting [8]), 31%; in assay [3] (setting [6]), 9%; in assay [3] (setting [7]) it was 9%. In addition, the “impairment of mitosis (in words)” value in assay [4] is on record as “affected cytokinesis”.
On to `Cc1cncc2c1[nH]c1ccc3cc(OCCN(C)C)ccc3c12` [CH21, 3-(2-N,N-dimethylaminoethyloxy)-8-methyl-7H-benzo[e]pyrido(4,3-b)indole], for which, in assay [5], the “LATS1 protein level (in words)” value is on record as “large increase”.
Take `CCc1c[nH]c(=O)c2c1[nH]c1ccc3cc(OC)ccc3c12` [Compound C1, reference compound]: the remaining activity at 1 µM worked out at 19% in assay [1] (setting [7]), 23% in assay [2] (setting [8]) and 6% in assay [3] (setting [7]). Moreover, the “impairment of mitosis (in words)” value in assay [4] is reported as “prevented anaphase ongoing”.
